This is an account of results in article PMC12471853, “New Marine Actinobacteria Strain, Micromonospora sp. SH-82: Characterization, Specialized Metabolites and Biological Activities” (Microorganisms, 2025).

What is called IC50 is the concentration needed to halve the response being measured. A word on the viability: it is a read-out of living cells in per cent, often relative to untreated cells.

Read-outs that look alike come from different tables or passages of the source.

Data set [1] concerns Plasmodium falciparum 3D7. Kind of data set: Antiplasmodial activity, in vitro culture of chloroquine-sensitive strain. The data set is classed as cell-based. As for the experimental part: Biological activity assays were conducted on microbial extract from Micromonospora sp. SH-82 and on isolated compounds 1, 2, 3, and 5. The tests focused on antiplasmodial and cytotoxic activity. Detailed protocols for these activity tests can be found in reference. The antiplasmodial activity was conducted by using in vitro cultures of the chloroquine-sensitive 3D7 strain of Plasmodium falciparum (BEI Resources, Manassas, VA, USA) following the methodology of Trager and Jensen. The assays were performed in three independent experiments (n = 3), each conducted in duplicate. Artemisinin was used as the positive control, while DMSO served as the vehicle and negative control, representing 100% parasite growth. Untreated red blood cells were also included as a blank. The measurements consisted of determining the concentration required to inhibit 50% of parasite growth (IC50), expressed in µg/mL for the crude extract and in µM for the isolated compounds. IC50 values were calculated via simple linear regression.

The nature of data set [2]: Cytotoxic activity, CellTiter Glo luminescent cell viability assay, 72 h. The data set is classed as cell-based. Particulars: human, read-out: Percentage of Cell Viability. As for the experimental part: (§1) Biological activity assays were conducted on microbial extract from Micromonospora sp. SH-82 and on isolated compounds 1, 2, 3, and 5. The tests focused on antiplasmodial and cytotoxic activity. Detailed protocols for these activity tests can be found in reference. The cytotoxic activity was performed on human colorectal HCT-116 and mammary MDA-MB-231 carcinoma cells. Human HCT-116 colorectal carcinoma cells were grown in Gibco McCoy’s 5A supplemented with 10% fetal calf serum and 1% glutamine. MDA-MB231 breast carcinomas were grown in RPMI 1640 supplemented with 10% fetal calf serum and 1% glutamine. Human hTERT-RPE1 cells were cultured in DMEM/F12 medium containing 10% fetal calf serum and 1% glutamine, enabling their impact on a healthy cell line. Cell lines were maintained at 37 °C in a humidified atmosphere containing 5% CO2. Cell viability was determined via a luminescent assay according to the manufacturer’s instructions (Promega, Madison, WI, USA). Briefly, the cells were seeded in 96-well plates (2.5 × 10^3 cells/well) containing 90 μL of growth medium. After 24 h of culture, the cells were treated with the tested compounds at 10 and 1 μg/mL (extracts) or at 10 and 1 μM (pure compounds) final concentrations. Control cells were treated with the vehicle (DMSO), and no effect was observed from DMSO diluted at 1/1000. After 72 h of incubation, 100 μL of CellTiter Glo Reagent was added for 15 min before recording luminescence with a spectrophotometric plate reader PolarStar Omega (BMG LabTech, Ortenberg, Germany). The percent viability index was evaluated by two independent assays in triplicate.

Data set [3] is described as follows: Cytotoxicity on non-cancerous cell line, CellTiter Glo luminescent cell viability assay, 72 h. The format is cell-based, human. Particulars: human, hTERT-RPE1 cells (non-cancerous cell line), 72 h, read-out: Percentage of Cell Viability; for viability at 72 h, 1 µM: RPE1, pure compounds at 1 µM; for viability at 72 h, 10 µM: RPE1, pure compounds at 10 µM. The protocol:
as §1

In the next data set the test system is RPE1 cell line. The description is as above. The note with it: RPE1; 10 and 1 µM (compounds) or 10 and 1 µg/mL (extract). The format is cell-based, human. The protocol: as §1
Data set [4] in a line: Stability check of compound 5 by new NMR and ESI+-HRMS analyses. The data set is classed as physicochemical. The note with it: re-analysis by NMR and ESI+-HRMS prior to biological assays, one year later (Figure S43). As for the experimental part:
Prior to conducting biological assays, it was necessary to ascertain the stability of compound 5. To this end, new NMR and ESI^+-HRMS analyses were recorded (Figures S38–S43). […] The first one could be identified as the 9-hydroxy derivative of 5 and, thus, to 6,9-hemiacetal-9-hydroxy-10,11-anhydroerythronolide B (5.1) (Figure 2). The second one has a carbonyl in C-9 at δC 208.8 and, therefore, corresponds to the open form of the first one: 8-epi-10,11-anhydroerythronolide B (5.2) (Figure 2).

Setting [5] is: HCT-116 colorectal carcinoma cells, HCT-116, pure compounds at 1 µM.
The mark [6] stands for this setting: HCT-116 colorectal carcinoma cells, HCT-116, pure compounds at 10 µM.
Setting [7] is: MDA-MB-231 breast carcinoma cells, MDA-MB-231, pure compounds at 1 µM.
The mark [8] stands for this setting: MDA-MB-231 breast carcinoma cells, MDA-MB-231, pure compounds at 10 µM.

On to `C[C@@H]1CC[C@H]2[C@@H](C)C(=O)O[C@@H]3O[C@@]4(C)CC[C@@H]1[C@]32OO4` [Artemisinin, reference compound], for which the IC50 in data set [1] (3D7, positive control, read-out: IC50 against Plasmodium falciparum 3D7 (converted)) is 0.00636 µg/mL.

With `CCC1OC(=O)C(C)C(OC2CC(C)(OC(C)=O)C(OC(C)=O)C(C)O2)C(C)C(OC2OC(C)CC(N(C)C)C2O)C(C)(OC2CC(N(C)C)C(O)C(C)O2)CC(C)C(=O)C(C)C(O)C1(C)O` (stereo not drawn) [Compound 3, megalomicin C1], the viability at 72 h, 1 µM in data set [2] (setting [5]) came to 100 ± 1.66%; in data set [2] (setting [7]), 102 ± 1.74%; in data set [3] it was 104 ± 1.32%. Further, the viability at 72 h, 10 µM in data set [2] (setting [6]) worked out at 97.3 ± 2.22%; in data set [2] (setting [8]), 98.6 ± 1.38%; in data set [3], 104 ± 1.94%. In addition, the “toxicity towards healthy cells (in words)” value in the data set with RPE1 cell line is “No activity”. Also, the IC50 is 3.61 µM in data set [1] (3D7, Experiment 1, dose-response curve, Figure 8, read-out: IC50 against Plasmodium falciparum 3D7 (converted)); 9.54 µM in data set [1] (3D7, Experiment 2, dose-response curve, Figure 8, read-out: IC50 against Plasmodium falciparum 3D7 (converted)); 5.96 µM in data set [1] (3D7, Experiment 3, dose-response curve, Figure 8, read-out: IC50 against Plasmodium falciparum 3D7 (converted)); 6.31 µM in data set [1] (3D7, IC50 obtained from the average dose-response curve, Figure 8, read-out: IC50 (mean curve)); 6.37 µM in data set [1] (3D7, arithmetic mean ± SD of three independent assays, read-out: IC50 against Plasmodium falciparum 3D7 (converted)); 6.12 ± 2.87 µg/mL in data set [1] (3D7, mean ± SD of three independent assays, read-out: IC50 against Plasmodium falciparum 3D7 (converted)).

In the case of `CC[C@H]1OC(=O)[C@H](C)[C@@H](O)[C@H](C)[C@@H](O)[C@@H](C)C[C@@H](C)C(=O)[C@H](C)[C@@H](O)[C@H]1C` [Compound 2, 6-desoxyerythronolide B], the viability at 72 h, 1 µM in data set [2] (setting [5]) worked out at 101 ± 1.62%; in data set [2] (setting [7]), 105 ± 1.56%; in data set [3] it was 99.1 ± 1.4%. Also, the viability at 72 h, 10 µM amounted to 103 ± 3.56% in data set [2] (setting [6]), 101 ± 1.13% in data set [2] (setting [8]) and 95.3 ± 0.96% in data set [3]. In the data set with RPE1 cell line, the “toxicity towards healthy cells (in words)” value is “No activity”.

Consider `CC[C@H]1OC(=O)[C@H](C)[C@@H](O)[C@H](C)[C@@H](O)[C@](C)(O)C[C@@H](C)C(=O)[C@H](C)[C@@H](O)[C@H]1C` [Compound 1, Erythronolide B], for which the viability at 72 h, 1 µM in data set [2] (setting [5]) is 101 ± 0.5%; in data set [2] (setting [7]) it was 107 ± 0.86%; in data set [3], 102 ± 1.58%. Moreover, the viability at 72 h, 10 µM in data set [2] (setting [6]) was determined as 104 ± 1.16%; in data set [2] (setting [8]), 100 ± 0.76%; in data set [3], 97.3 ± 1.03%. Moreover, the “toxicity towards healthy cells (in words)” value in the data set with RPE1 cell line is listed as “No activity”.

`CCC1OC(=O)C(C)C(O)C(C)C(O)C2(C)CC(C)C(OC)(O2)C(C)=CC1C` (stereo not drawn) [Compound 5, 6,9-hemiacetal-9-O-methyl-10,11-anhydroerythronolide B]: the viability at 72 h, 1 µM in data set [2] (setting [5]) amounted to 99.1 ± 0.32%; in data set [2] (setting [7]) it was 100 ± 1.74%; in data set [3], 103 ± 1.52%. Moreover, the viability at 72 h, 10 µM in data set [2] (setting [6]) turned out to be 99.7 ± 0.59%; in data set [2] (setting [8]), 99 ± 3.28%; in data set [3], 103 ± 1.77%. Besides, the “toxicity towards healthy cells (in words)” value with RPE1 cell line is recorded as “No activity”. For the same compound, the “stability of the compound (in words)” value in data set [4] was “a mixture of two compounds is observed”.
